US8637038B2, “Methods for inhibiting allograft rejection” (Rigel Pharmaceuticals, Inc., priority 2011, dated 2014)
Like-named read-outs stand apart in the source and are kept apart here.

What was measured:
Syk = experiment: Anti-IgM Ramos phospho-Erk; assay type: cell-based; details: Homo sapiens, read-out: Anti-IgM Ramos phospho-Erk EC50
Experimental: The erythropoietin (EPO)-dependent survival of cultured human erythroid progenitor cells (CHEPs) was determined using CellTiter-Glo® Luminescent Cell Viability Assay (Promega). Human primary T cell activation was assessed by measuring IL-2 production by ELISA (R&D Systems, Minneapolis, Minn., USA) following plate-bound anti-CD3 and anti-CD28 stimulation (Anti-Human CD3; BD Biosciences; Anti-Human CD28; Immunotech; Prague, Czech Republic). The enzymatic activity of tryptase released by human cultured mast cells (CHMCs) upon stimulation with IgE was quantified by cleavage of the synthetic fluorescent peptide substrate Z-Ala-Lys-Arg-7-amino-4-methylcoumarin (MP Biomedicals, Solon, Ohio, USA) in tryptase buffer. B-cell receptor-dependent Erk phosphorylation was measured in Ramos cells by intracellular FACS (anti-pT202/pY204-ERK1/2-AlexaFluor488; BD Biosciences). Cell proliferation assays were performed using A549 epithelial cells and H1299 lung carcinoma cells using nuclear staining to measure cell numbers (4′6-diamidino-2-phenylindole, dihydrochloride (DAPI; Invitrogen, Darmstadt, Germany)).

JAK2 = experiment: GM-CSF whole blood granulocytes phospho-STAT5; assay type: cell-based; details: read-out: GM-CSF whole blood granulocytes phospho-STAT5 EC50
Experimental: The activity of Compound III and Compound I was assessed in a panel of cell-based assays. Compound III and Compound I are selective inhibitors of JAK1/3-dependent signaling. Data for a non-selective JAK inhibitor (Compound IV) is shown for reference. Mixed lymphocyte reactions (MLRs) were performed by incubating freshly prepared naive human peripheral blood lymphocytes from one donor with CD80+/CD86+ mature Dendritic Cells derived from a different donor for 5 days. The percentage of CD3+/CD71+ (anti-CD3-APC, Clone HIT3a, anti-CD 71-FITC, Clone M-A712; BD Biosciences, San Jose, Calif.) proliferating cells was assessed by fluorescence-activated cell sorting (FACS; BD Bioscience). Interleukin-2 (IL-2)-dependent human primary T cell proliferation was assessed using CellTiter-Glo® Luminescent Cell Viability Assay (Promega, Madison, Wis.). STAT phosphorylation induced by different cytokines in human primary T cells was measured by intracellular FACS analysis (anti-pY694-STAT5 AlexaFluor488, anti-pY701-STAT1 AlexaFluor488, and anti-pY693-STAT4 AlexaFluor488; BD Biosciences). […] Interferon-γ (IFN-γ) signaling was assessed in the U937 monocytic cell line by measuring ICAM-1 surface expression by FACS (ICAM-1-APC, BD Bioscience).

[1] = Five-day heart allograft study: side effects (clinical chemistry); assay type: in vivo, rat; details: five days
Experimental: Compound I and Compound III were provided by Rigel (South San Francisco, Calif.) and Tacrolimus was provided by Astellas (Munich, Germany). All drugs were administrated orally each in two different concentrations: Compound I LD (15 mg/kg BID; n=6) and HD (60 mg/kg BID; n=6); Compound III LD (5 mg/kg BID; n=6) and HD (20 mg/kg BID; n=6); Tac LD (1 mg/kg QD; n=6) and HD (4 mg/kg QD; n=6). Administration of all drugs was performed every day at the same time points. Tacrolimus was applied only once a day (QD) every 24 hours. During administration of Compound I (BID) and Compound III (BID) a 12 hour pause was kept in between each drug application.
Lew recipients of heterotopic BN heart transplants were randomly assigned to their group. Animals were either left untreated (groups 1 and 2; see Table 1,5-day study) or received their group specific medication (groups 3-8; see Table 1,5-day study) by oral application. An untreated syngeneic transplant group Lew-Lew was generated as control.
EDTA samples and sera were taken five days after transplantation for differential blood count, BUN, Creatinine, Cholesterol, HDL, LDL, Triglycerides, AST, and ALT, respectively. Analyses were performed by standard clinical chemistry procedures.

Row | Compound | EC50 (Syk; upstream kinase Syk) | EC50 (JAK2; whole blood, JAK2) | EC50 (Syk) | EC50 (JAK2) | serum HDL, mean ([1]; HD (Compound I 60 mg/kg BID, Compound III 20 mg/kg BID, Tac 4 mg/kg QD), no medication mean 26.0) | serum LDL, mean ([1]; LD (Compound III 5 mg/kg BID, Tac 1 mg/kg QD))
1 | COc1cc(Nc2ncc(C)c(Nc3ccc4oc(=O)[nH]c4c3)n2)cc(C)c1F [Compound I, 5-(2-(4-fluoro-3-methoxy-5-methylphenylamino)-5-methylpyrimidin-4-ylamino)benzo[d]oxazol-2(3H)-one] | 1440 ± 586 nM | 32.7 ± 9.51 µM |  |  |  | 
2 | COc1cc(Nc2ncc(C)c(Nc3ccc4oc(=O)[nH]c4c3)n2)cc(C)c1C [Compound III, 5-(2-(3-methoxy-4,5-dimethylphenylamino)-5-methylpyrimidin-4-ylamino)benzol[d]oxazol-2-(3H)-one] |  |  | 1280 ± 190 nM | > 50 µM | 46.3 mg/dL | 19.6 mg/dL
